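Assay format: 96-well plates, 48-hour exposure. Definition used: TGI = concentration required for complete inhibition of growth.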
Experiments:
Assay in all cases: NCI tumour cell line growth inhibition, 48 h
[1] = system: SF-539 CNS
[2] = system: U251 CNS
[3] = system: HOP-62 NSCLC
[4] = system: SK-MEL-28 melanoma
[5] = system: HCT-15 colon
[6] = system: SNB-19 CNS
[7] = system: NCI-H460 lung
[8] = system: OVCAR-5 ovarian
[9] = system: SF-268 CNS
[10] = system: MALME-3M melanoma
[11] = system: OVCAR-8 ovarian
[12] = system: HT29 colon
[13] = system: MOLT-4 leukemia
[14] = system: MCF7 breast
[15] = system: UACC-257 melanoma
[16] = system: SK-OV-3 ovarian
[17] = system: KM12 colon
[18] = system: NCI-H23 lung
[19] = system: DU-145 prostate
[20] = system: SW-620 colon
[21] = system: MDA-MB-435
[22] = system: CAKI-1 renal
[23] = system: NCI-H522 lung
[24] = system: UACC-62 melanoma
[25] = system: A549 NSCLC
[26] = system: M14 melanoma
[27] = system: CCRF-CEM leukemia
[28] = system: HOP-92 NSCLC
[29] = system: 786-0 renal
[30] = system: SR leukemia
[31] = system: BT-549 breast
[32] = system: A498 renal
[33] = system: HCC-2998 colon
[34] = system: SF-295 CNS
[35] = system: HL-60(TB) leukemia
[36] = system: IGROV1 ovarian
[37] = system: RXF 393 renal
[38] = system: LOX IMVI melanoma
[39] = system: TK-10 renal
[40] = system: PC-3 prostate
[41] = system: COLO 205 colon
[42] = system: MDA-N
[43] = system: EKVX NSCLC
[44] = system: ACHN renal
[45] = system: SK-MEL-5 melanoma
[46] = system: UO-31 renal
[47] = system: HCT-116 colon
[48] = system: OVCAR-3 ovarian
[49] = system: HS 578T breast
[50] = system: SNB-75 CNS
[51] = system: MDA-MB-231 breast
[52] = system: RPMI-8226 leukemia
[53] = system: K-562 leukemia
[54] = system: NCI/ADR-RES ovarian
[55] = system: NCI-H226 lung
[56] = system: SN12C renal
[57] = system: SK-MEL-2 melanoma
[58] = system: OVCAR-4 ovarian
[59] = system: T-47D breast

O=P(O)(O)C(NCC(O)CN1CCOCC1)P(=O)(O)O (centres undefined)
TGI [1]: > 100 µM
TGI [2]: > 100 µM
TGI [3]: > 100 µM
TGI [4]: > 100 µM
TGI [5]: > 100 µM
TGI [6]: > 100 µM
TGI [7]: > 100 µM
TGI [8]: > 100 µM
TGI [9]: > 100 µM
TGI [10]: > 100 µM
TGI [11]: > 100 µM
TGI [12]: > 100 µM
TGI [13]: > 100 µM
TGI [14]: > 100 µM
TGI [15]: > 100 µM
TGI [16]: > 100 µM
TGI [17]: > 100 µM
TGI [18]: > 100 µM
TGI [19]: > 100 µM
TGI [20]: > 100 µM
TGI [21]: > 100 µM
TGI [22]: > 100 µM
TGI [23]: > 100 µM
TGI [24]: > 100 µM
TGI [25]: > 100 µM
TGI [26]: > 100 µM
TGI [27]: > 100 µM
TGI [28]: > 100 µM
TGI [29]: > 100 µM
TGI [30]: > 100 µM
TGI [31]: > 100 µM
TGI [32]: > 100 µM
TGI [33]: > 100 µM
TGI [34]: > 100 µM
TGI [35]: > 100 µM
TGI [36]: > 100 µM
TGI [37]: > 100 µM
TGI [38]: > 100 µM
TGI [39]: > 100 µM
TGI [40]: > 100 µM
TGI [41]: > 100 µM
TGI [42]: > 100 µM
TGI [43]: > 100 µM
TGI [44]: > 100 µM
TGI [45]: > 100 µM
TGI [46]: > 100 µM
TGI [47]: > 100 µM
TGI [48]: > 100 µM
TGI [49]: > 100 µM
TGI [50]: > 100 µM
TGI [51]: > 100 µM
TGI [52]: > 100 µM
TGI [53]: > 100 µM
TGI [54]: > 100 µM
TGI [55]: > 100 µM

N#Cc1nn(C(N)=O)c(N)c1C#N
TGI [1]: > 100 µM
TGI [2]: > 100 µM
TGI [3]: > 100 µM
TGI [4]: > 100 µM
TGI [5]: > 100 µM
TGI [6]: > 100 µM
TGI [7]: > 100 µM
TGI [8]: > 100 µM
TGI [9]: > 100 µM
TGI [11]: > 100 µM
TGI [12]: > 100 µM
TGI [13]: > 100 µM
TGI [14]: > 100 µM
TGI [15]: > 100 µM
TGI [16]: > 100 µM
TGI [17]: > 100 µM
TGI [18]: > 100 µM
TGI [19]: > 100 µM
TGI [20]: > 100 µM
TGI [22]: > 100 µM
TGI [23]: > 100 µM
TGI [56]: > 100 µM
TGI [57]: > 100 µM
TGI [24]: > 100 µM
TGI [25]: > 100 µM
TGI [26]: > 100 µM
TGI [27]: > 100 µM
TGI [29]: > 100 µM
TGI [30]: > 100 µM
TGI [31]: > 100 µM
TGI [32]: > 100 µM
TGI [33]: > 100 µM
TGI [34]: > 100 µM
TGI [35]: > 100 µM
TGI [36]: > 100 µM
TGI [39]: > 100 µM
TGI [40]: > 100 µM
TGI [41]: > 100 µM
TGI [58]: > 100 µM
TGI [42]: > 100 µM
TGI [43]: > 100 µM
TGI [44]: > 100 µM
TGI [45]: > 100 µM
TGI [59]: > 100 µM
TGI [46]: > 100 µM
TGI [47]: > 100 µM
TGI [48]: > 100 µM
TGI [49]: > 100 µM
TGI [50]: > 100 µM
TGI [51]: > 100 µM
TGI [53]: > 100 µM
TGI [54]: > 100 µM
TGI [55]: > 100 µM

CS(=O)(=O)N1CC(CI)c2ccc(O)cc21 (centres undefined)
TGI [1]: 8.66 µM
TGI [2]: 10 µM
TGI [3]: 7.62 µM
TGI [4]: 14.3 µM
TGI [5]: 12.3 µM
TGI [7]: 10.9 µM
TGI [9]: 16.1 µM
TGI [10]: 4.43 µM
TGI [11]: 11.7 µM
TGI [12]: 15.9 µM
TGI [13]: 9.65 µM
TGI [14]: 15.1 µM
TGI [17]: 15 µM
TGI [18]: 5.32 µM
TGI [19]: 9.36 µM
TGI [21]: 4.2 µM
TGI [22]: 12.9 µM
TGI [23]: 2.99 µM
TGI [56]: 15.8 µM
TGI [57]: 5.49 µM
TGI [25]: 17 µM
TGI [27]: 17.4 µM
TGI [28]: 6.31 µM
TGI [29]: 12.7 µM
TGI [30]: 7.33 µM
TGI [31]: 15.6 µM
TGI [32]: 7.46 µM
TGI [33]: 4.69 µM
TGI [34]: 13.4 µM
TGI [35]: 6.09 µM
TGI [36]: 29.3 µM
TGI [37]: 3.44 µM
TGI [38]: 17.2 µM
TGI [39]: 7.3 µM
TGI [40]: 6.51 µM
TGI [41]: 12.3 µM
TGI [58]: 5.95 µM
TGI [42]: 6.4 µM
TGI [43]: 14.4 µM
TGI [44]: 12.9 µM
TGI [45]: 3.26 µM
TGI [46]: 11.6 µM
TGI [47]: 12.6 µM
TGI [48]: 7.71 µM
TGI [49]: > 100 µM
TGI [50]: 6.02 µM
TGI [51]: 8.53 µM
TGI [52]: 19.1 µM
TGI [53]: 24.2 µM
TGI [54]: 18 µM
TGI [55]: 10.7 µM
